Assay results as given in a melting point compilation (Tetko et al.; mined from patent text by program, amines drawn as free bases though some values may be those of a salt).

Compared with N#Cc1c[nH]c2c(NS(=O)(=O)c3cccc(Cl)c3)cccc12, CON=C(C#N)c1ccccc1COc1cccc(Cl)c1 is lower in melting point: 204 to 205 °C for the first, 62 to 63 °C for the second.

First: CCCCc1nn(-c2cc(N)ccc2Cl)c(=O)n1Cc1ccc(-c2ccccc2S(=O)(=O)NC(C)(C)C)cc1F
Second: CC(C)(C)c1cccc(S(=O)(=O)n2c(Cc3ccc(C(=O)O)cc3)c(F)c3cc(C(F)(F)F)ccc32)c1
The melting point of the first is higher: 167 to 170 °C for the first, 158 °C for the second.

Compared with CC1=C(C2C=CN(C(=O)OCC(Cl)(Cl)Cl)C=C2)SCC(=O)N1, CN1CCN(c2cc3ccccc3c(=O)[nH]2)[C@@H](CO)C1 is higher in melting point: 158 to 160 °C for the first, 169 to 171 °C for the second.

Compared with CCCCCCCCCCCCCCCC(=O)OCC(COCc1ccccc1)OC(=O)CCCCCCCCCCCCCCC (stereo unspecified), CCCCCCCCCCCCCCCCSCC(CN)n1nnc(C)n1 (stereo unspecified) is higher in melting point: 40 to 42 °C for the first, 82 to 83 °C for the second.

Compared with O=C(NCCCO)c1c([N+](=O)[O-])ccc(N(CCBr)CCBr)c1[N+](=O)[O-], CCN(CCCCCCN)c1ccc2c(=O)[nH][nH]c(=O)c2c1 is higher in melting point: 115 to 117 °C for the first, 170 °C for the second.

First: CCCc1c(OCCCCCOc2ccc(CCCCC(=O)O)cc2CCC(=O)O)ccc2c1OCCC2=O
Second: CCCC(=O)C(=CNc1ccc(OC(=O)c2ccccc2)cc1OC)C(=O)OCC
The melting point of the first is higher: 101 to 104 °C for the first, 85 to 87 °C for the second.

First: NC(C(=O)O)C(=CF)c1c[nH]c2ccc(O)cc12 (stereo unspecified)
Second: O=C(O)c1cc(C(F)(F)F)ccc1O
The melting point of the first is higher: > 250 °C for the first, 149 to 151 °C for the second.

First: Oc1cc(O)nc(C2CC2)n1
Second: Cc1cc(-n2ccnc2)c2cccc(O)c2n1
The melting point of the first is higher: > 290 °C for the first, 192 to 196 °C for the second.

First: CC(C)(C)C(O)C1C(C(=O)O)C1(C)C (stereo unspecified)
Second: CC(C)(C)OC(=O)c1ncn2c1[C@@H]1CCCN1C(=O)c1c(I)cccc1-2
The melting point of the first is lower: 129 °C for the first, 241 to 242 °C for the second.

First: CC(=O)Oc1ccc(C#C[Si](C)(C)C)cc1
Second: CC(=CC(=O)c1ccc(Cl)cc1)N(C)C
The melting point of the first is lower: 45 °C for the first, 103 to 105 °C for the second.

First: Nc1ccc(OCC2CN(c3ccccn3)C(=O)O2)cc1 (stereo unspecified)
Second: CCCc1ccccc1OS(=O)(=O)c1ccc(N2CCN(C)C2=O)cc1
The melting point of the first is higher: 141 to 143 °C for the first, 103 to 105 °C for the second.

First: CCc1nc(/C=C/c2cn(-c3ccccc3)nc2OCc2ccc(OCc3nc(-c4cccc(-c5noc(=O)[nH]5)c4)oc3C)c(OC)c2)cs1
Second: COc1cc2nc(N3CCc4cc(OCc5ccccc5)c(OC)cc4C3)cc(N)c2cc1OC
The melting point of the first is lower: 139 to 140 °C for the first, 181 to 182 °C for the second.

Compared with N#Cc1nn(-c2c(Cl)cc(C(F)(F)F)cc2Cl)c(N)c1C(F)(F)F, CNC(=O)c1cnn(-c2ccc(Cl)cc2Cl)c1C(F)(F)F is lower in melting point: 191 to 193 °C for the first, 143 to 144 °C for the second.

First: Cn1cnc2cc(NC(=O)c3cc4cc(F)ccc4n3Cc3cccc(F)c3)cnc21
Second: COC(=O)Nc1cc(-c2ccc(S(C)(=O)=O)cc2)n(-c2ccc(F)cc2)n1
The melting point of the first is higher: 235 to 236 °C for the first, 225 to 227 °C for the second.

First: O=c1oc2c(c(O)c1C(c1ccccc1)C1CC1)CCCCC2CCC1OCCO1 (stereo unspecified)
Second: Cc1c(-c2ccccc2)nc2cc(Cl)ccc2c1C(=O)N[C@@H](C)C1CCCCC1
The melting point of the first is lower: 68 to 76 °C for the first, 204 to 207 °C for the second.

First: NCCN1CCC(Nc2nc3ccccc3[nH]2)CC1
Second: CCCCOC(=O)c1ccccc1C(=O)Nc1nc2ccccc2[nH]1
The melting point of the first is lower: 99.8 °C for the first, 187 °C for the second.

Compared with CN1C(=O)CC[C@]2(C)c3ccc(C=Cc4ccc5ccccc5n4)cc3CC[C@@H]12, CN(C)C1(Cc2ccccc2)CC=C(c2c[nH]c3ncccc23)CC1 (stereo unspecified) is lower in melting point: 233 to 236 °C for the first, 222 to 225 °C for the second.

Compared with CCCSc1nsnc1O, CCN1c2ncccc2C(=O)N(C)c2ccc(O)nc21 is higher in melting point: 84 to 85 °C for the first, 215 to 218 °C for the second.

First: CN1CCC(C2(O)c3ccc(Cl)cc3Sc3ccc(F)cc32)CC1 (stereo unspecified)
Second: Cc1ccc(C)c(C(=O)c2cc(Cl)ccc2Cl)c1
The melting point of the first is higher: 133 to 142 °C for the first, 58 to 61 °C for the second.

Compared with CCC1(C2OC(C3OC(O)(CO)C(C)CC3C)CC2C)CCC(C2(C)CCC3(CC(O)C(C)C(C(C)C(OC)C(C)C(=O)O)O3)O2)O1 (stereo unspecified), N#CCc1c(C(N)=O)ncn1C1CCCCO1 (stereo unspecified) is higher in melting point: 78 to 80 °C for the first, 198 to 199 °C for the second.

Compared with Cc1noc(NS(=O)(=O)c2nccs2)c1Cl, O=S(=O)(Nc1onc(C(F)(F)F)c1Br)c1ccccc1 is lower in melting point: 171 to 173 °C for the first, 104 to 105 °C for the second.

First: CCCCc1nc2c(N)nc3cccnc3c2n1CCNC(=O)c1c(C)noc1C
Second: Cc1ccc(-c2cnc3c(N)ncnc3n2)cc1
The melting point of the first is lower: 188 to 189 °C for the first, 315 °C for the second.

Going from CS(=O)(=O)CCCn1c(=N)sc2cc(OC(F)(F)F)ccc21 to COc1cc(Cl)ccc1C(Nc1ccc(F)c2nc(C)ncc12)C(O)(C=C(C)C)C(F)(F)F (stereo unspecified), the melting point falls from 180 °C to 118 °C.

First: O=C(CC1C(=S)Nc2ccccc21)NCc1ccccc1 (stereo unspecified)
Second: O=[N+]([O-])c1ccc(C2OCc3ccc(CO)cc3CO2)cc1 (stereo unspecified)
The melting point of the first is higher: 193 to 195 °C for the first, 146 °C for the second.

First: CSc1nc(NCc2ccc(-c3ccsc3)cc2)n2ncc(C(C)C)c2n1
Second: Cc1nn(-c2ccc(C#N)c(Cl)c2)c(C)c1Cc1ccc(C(=O)N2CCC(O)CC2)cc1
The melting point of the first is lower: 141 to 143 °C for the first, 153 to 154 °C for the second.

Compound Cc1cc2c(cc1C)SC(CCCBr)C(=O)N2 (stereo unspecified) has a melting point of 151 to 153 °C.
